Earlier results in patent US12268662B2, “Formulations comprising carbachol and brimonidine to enhance anti- presbyopia effects” (VISUS THERAPEUTICS, INC., priority 2021, dated 2025).

Key:
[1] = not given; remark: listed apart in the source
[2] = not given; remark: listed apart in the source

pKa: about 15
log P [1]: −3.78
solubility [2]: 1 gm/mL
Structure (SMILES): C[N+](C)(C)CCOC(N)=O [Carbachol]
